Experimental data as given in ChEMBL document CHEMBL3091320, “6-(4-Pyridyl)pyrimidin-4(3H)-ones as CNS penetrant glycogen synthase kinase-3β inhibitors” (Bioorg Med Chem Lett, 2013).

How the values were obtained:
[1] = target: Glycogen synthase kinase-3 beta (Homo sapiens, UniProt P49841); experiment: Inhibition of human recombinant GSK3beta using prephosphorylated GS1 peptide as substrate after 1 hr by liquid scintillation spectrometry
[2] = Clearance in rat microsomes; assay type: ADME, Microsome
[3] = Inhibition of CYP1A (unknown origin); assay type: ADME, Homo sapiens
[4] = Permeability co-efficient in Wistar rat brain at 30 mg/kg, ip measured at 0.25 hrs; assay type: ADME, organism-based; design: dose 30 mg/kg, route intraperitoneal
[5] = system: Brain; experiment: Drug uptake in Wistar rat brain at 30 mg/kg, ip measured at 0.25 hrs; assay type: ADME, organism-based; design: dose 30 mg/kg, route intraperitoneal; settings: in vivo
[6] = system: Rattus norvegicus; experiment: Reduction in tau protein phosphorylation in Wistar rat prefrontal cortex at 100 mg/kg, ip after 15 mins to 2 hrs by western blot analysis relative to vehicle-treated control; assay type: functional; design: scale not given: the % may be the effect or the level left; settings: route intraperitoneal

Chain of Glycogen synthase kinase-3 beta (P49841 whole entry): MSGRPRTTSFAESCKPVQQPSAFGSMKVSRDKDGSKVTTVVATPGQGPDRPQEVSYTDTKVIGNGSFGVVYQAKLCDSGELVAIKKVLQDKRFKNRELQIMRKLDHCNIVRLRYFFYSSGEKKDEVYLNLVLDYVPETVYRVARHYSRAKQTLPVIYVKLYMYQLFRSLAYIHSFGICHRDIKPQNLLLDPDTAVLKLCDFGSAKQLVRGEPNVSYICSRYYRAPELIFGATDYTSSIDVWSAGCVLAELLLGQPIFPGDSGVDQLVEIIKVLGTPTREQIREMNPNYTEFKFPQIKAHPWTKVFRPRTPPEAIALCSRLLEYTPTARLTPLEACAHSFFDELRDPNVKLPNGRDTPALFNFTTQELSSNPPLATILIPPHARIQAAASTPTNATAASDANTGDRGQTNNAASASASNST

IC50 [1] [nM] | Compound | also measured
8.9 | Cn1c(NCC(=O)c2ccccc2)nc(-c2ccncc2)cc1=O | CL [2]: 172 µL/min/mg; IC50 [3]: 5700 nM; Kp at 0.25 h [4]: 1.15; Drug uptake [5]: 11.2 uM/ml; Activity [6]: 24%
52 | Cn1c(NCC(=O)c2ccc(F)cc2)nc(-c2ccncc2)cc1=O | CL [2]: 166 µL/min/mg; IC50 [3]: 10900 nM
13 | Cn1c(NCC(=O)c2cccc(Cl)c2)nc(-c2ccncc2)cc1=O | CL [2]: 262 µL/min/mg; IC50 [3]: 670 nM
38 | Cc1cccc(C(=O)CNc2nc(-c3ccncc3)cc(=O)n2C)c1 | CL [2]: 262 µL/min/mg; IC50 [3]: 2200 nM
13 | Cn1c(NCC(=O)c2cccc(C#N)c2)nc(-c2ccncc2)cc1=O | CL [2]: 133 µL/min/mg; IC50 [3]: > 53300 nM
3000 | Cc1nc(-c2ccncc2)cc(=O)[nH]1 | –
1300 | CCCCc1nc(-c2ccncc2)cc(=O)[nH]1 | –
2100 | CC(C)c1nc(-c2ccncc2)cc(=O)[nH]1 | –
2400 | CC(C)Cc1nc(-c2ccncc2)cc(=O)[nH]1 | –
1800 | O=c1cc(-c2ccncc2)nc(-c2ccccc2)[nH]1 | –
1300 | O=c1cc(-c2ccncc2)nc(Cc2ccccc2)[nH]1 | –
8900 | O=c1cc(-c2ccncc2)nc(CCc2ccccc2)[nH]1 | –
500 | O=c1cc(-c2ccncc2)nc(CCCc2ccccc2)[nH]1 | –
90 | Cn1c(CCCc2ccccc2)nc(-c2ccncc2)cc1=O | –
1900 | CCn1c(CCCc2ccccc2)nc(-c2ccncc2)cc1=O | –
9800 | CCCn1c(CCCc2ccccc2)nc(-c2ccncc2)cc1=O | –
2200 | O=c1cc(-c2ccncc2)nc(CCCc2ccccc2)n1Cc1ccccc1 | –
200 | Cn1c(OCCc2ccccc2)nc(-c2ccncc2)cc1=O | –
70 | Cn1c(NCCc2ccccc2)nc(-c2ccncc2)cc1=O | –
39 | Cn1c(NCCC2CCCCC2)nc(-c2ccncc2)cc1=O | –
23 | Cn1c(NCC(O)c2ccccc2)nc(-c2ccncc2)cc1=O (configuration not stated) | –
130 | Cn1c(N(CCCCN)CCc2ccccc2)nc(-c2ccncc2)cc1=O | –
150 | Cn1c(N(CCCCCN)CCc2ccccc2)nc(-c2ccncc2)cc1=O | –
27 | Cn1c(NCC(=O)c2ccccc2F)nc(-c2ccncc2)cc1=O | CL [2]: 158 µL/min/mg; IC50 [3]: 3800 nM
25 | Cn1c(NCC(=O)c2cccc(F)c2)nc(-c2ccncc2)cc1=O | CL [2]: 207 µL/min/mg; IC50 [3]: 4200 nM
